PubChem BioAssay (NCI)
Several values for one entry are separate records, joined by “and”; a condition that tells them apart may be missing. Equal entries are not always repeated.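 Tested at 5 concentrations; 48 h exposure; 96-well plates; endpoints linearly interpolated, else capped at highest concentration. GI50 marks 50% less growth. TGI: concentration producing complete growth inhibition.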

Assays:
Experiment in all cases: DTP human tumour cell line panel, 48 h
HCT-15 colon = tested on: HCT-15 colon
SF-539 CNS = tested on: SF-539 CNS
IGROV1 ovarian = tested on: IGROV1 ovarian
T-47D breast = tested on: T-47D breast
SF-295 CNS = tested on: SF-295 CNS
COLO 205 colon = tested on: COLO 205 colon
NCI-H226 lung = tested on: NCI-H226 lung
DU-145 prostate = tested on: DU-145 prostate
UACC-62 melanoma = tested on: UACC-62 melanoma
TK-10 renal = tested on: TK-10 renal

Row | Structure (SMILES) | GI50 (HCT-15 colon) [µM] | TGI (HCT-15 colon) | GI50 (SF-539 CNS) [µM] | TGI (SF-539 CNS) [µM] | GI50 (IGROV1 ovarian) [µM] | TGI (IGROV1 ovarian) | GI50 (T-47D breast) [µM] | TGI (T-47D breast) [µM] | GI50 (SF-295 CNS) [µM] | TGI (SF-295 CNS) [µM] | GI50 (COLO 205 colon) [µM] | TGI (COLO 205 colon) | GI50 (NCI-H226 lung) [µM] | TGI (NCI-H226 lung) | GI50 (DU-145 prostate) [µM] | TGI (DU-145 prostate) [µM] | GI50 (UACC-62 melanoma) [µM] | TGI (UACC-62 melanoma) | GI50 (TK-10 renal) [µM] | TGI (TK-10 renal) [µM]
1 | COc1ccc(-c2cc(=O)c3c(OC)c4ccoc4c(/C=C/C=O)c3o2)cc1 | 1.73 | 5.92 µM | 4.14 | 19.6 | 13.6 | > 100 µM | 2.03 | > 100 | 3.4 | 26.5 | 27.5 | 80.4 µM | 2.93 | 8.89 µM | 4.53 | 18.9 | 1.77 | 5.11 µM | – | –
2 | Cc1ccc(C2=NN(c3ccc(S(=O)(=O)NC(=O)NCc4ccccc4)cc3)C(c3ccc(N(C)C)cc3)C2)c(C)c1 (stereo not drawn) | 3.27 | > 100 µM | 2.43 | 6.02 | 4.31 | 13.6 µM | 6.74 | > 100 | – | – | 3.71 | 10.4 µM | 3.91 | 15.9 µM | 4.6 | 16.6 | 2.5 | 6.8 µM | 6.46 | 35.9
3 | C#CN1C(=O)c2c(c(-c3ccccc3)c(-c3ccc(Oc4ccc(-c5c(-c6ccccc6)c6c(c(-c7ccccc7)c5-c5ccccc5)C(=O)N(C#C)C6=O)cc4)cc3)c(-c3ccccc3)c2-c2ccccc2)C1=O | – | > 100 µM | – | > 100 | – | > 100 µM | – | – | – | > 100 | – | > 100 µM | – | – | – | – | – | > 100 µM | – | > 100
4 | O=C(O)C1=Cc2cccc3cccc(c23)C1=O | – | > 100 µM | – | – | – | > 100 µM | – | – | – | > 100 | – | > 100 µM | – | > 100 µM | – | – | – | > 100 µM | – | > 100
5 | CCCCCCCCCCCCC(O)C1CCC(C(O)CCCCC(O)CCCCCC2CC(CC(C)=O)C(=O)O2)O1 (stereo not drawn) | 2.56 | 5.23 µM and 17.9 µM | 2.36 | 21.1 | 1.49 | 3.1 µM and 26.6 µM | – | – | 0.508 | 13.5 | 1.37 | 2.65 µM and 11.7 µM | 0.0401 | 4.19 µM and 12.7 µM | – | – | 1.38 | 3.66 µM and 16.3 µM | 2.4 | 14.1
6 | CCOC(=O)CCc1c(C)c2c(OC)cc(OC)cc2oc1=O | – | – | – | > 100 | – | – | – | – | – | > 100 | – | > 100 µM | – | > 100 µM | – | – | – | – | – | > 100
7 | OC1(C(Sc2ccccc2)Sc2ccccc2)CCCCCC1 | – | 60.5 µM | – | 64.9 | – | – | – | – | – | 66.2 | – | 57.8 µM | – | – | – | – | – | 28.5 µM | – | > 100
8 | Cc1ccc2ncnc(N(C)C3CCCCC3)c2c1 | 27 | 88.7 µM | – | – | 34.1 | > 100 µM | 76.9 | > 100 | 18.9 | 46.9 | 35.1 | > 100 µM | 18.7 | 58.4 µM | 33.9 | > 100 | 31.9 | > 100 µM | 36 | > 100
9 | NNC(=O)/C(NC(=O)c1ccccc1)=C(\N)c1cccc([N+](=O)[O-])c1 | – | > 100 µM | – | > 100 | – | > 100 µM | – | – | – | > 100 | – | > 100 µM | – | > 100 µM | – | – | – | > 100 µM | – | > 100
